pIC50: −log10 of the molar value. Active and inactive are the calls of the source. The rule behind the calls is not given here.

Data on 19 molecules can be found in ChEMBL document CHEMBL3880430, “Arginine derivatives with NP-1 antagonistic activity” (2012).

The nature of assay [1]: Cytotoxicity in human A549 cells assessed as decrease in cell viability after 44 hrs by XTT assay. Type of assay: functional, cell-based. The following applies: A549, 44 h.
Assay [2] has as its target Neuropilin-1 (Homo sapiens) (UniProt O14786). The experiment in a line: Inhibition of neuropilin-1 in human A549 cells assessed as decrease in cell migration at 10 to 100 uM after 4 hrs by trans-well assay. Format: cell-based.
For assay [3] the target is unchanged. The experiment in a line: Inhibition of neuropilin-1 in human DU145 cells assessed as decrease in cell adhesion to extracellular matrix proteins at 10 to 100 uM after 1.5 hrs by calcein-AM dye based fluorescence assay. To be noted: DU-145.
Assay [4] has the same target. Briefly: Inhibition of neuropilin-1 in human ACHN cells assessed as decrease in cell migration at 10 to 100 uM after 4 hrs by trans-well assay. Type of assay: cell-based.

Sequence of Neuropilin-1 (Homo sapiens) (O14786 whole entry): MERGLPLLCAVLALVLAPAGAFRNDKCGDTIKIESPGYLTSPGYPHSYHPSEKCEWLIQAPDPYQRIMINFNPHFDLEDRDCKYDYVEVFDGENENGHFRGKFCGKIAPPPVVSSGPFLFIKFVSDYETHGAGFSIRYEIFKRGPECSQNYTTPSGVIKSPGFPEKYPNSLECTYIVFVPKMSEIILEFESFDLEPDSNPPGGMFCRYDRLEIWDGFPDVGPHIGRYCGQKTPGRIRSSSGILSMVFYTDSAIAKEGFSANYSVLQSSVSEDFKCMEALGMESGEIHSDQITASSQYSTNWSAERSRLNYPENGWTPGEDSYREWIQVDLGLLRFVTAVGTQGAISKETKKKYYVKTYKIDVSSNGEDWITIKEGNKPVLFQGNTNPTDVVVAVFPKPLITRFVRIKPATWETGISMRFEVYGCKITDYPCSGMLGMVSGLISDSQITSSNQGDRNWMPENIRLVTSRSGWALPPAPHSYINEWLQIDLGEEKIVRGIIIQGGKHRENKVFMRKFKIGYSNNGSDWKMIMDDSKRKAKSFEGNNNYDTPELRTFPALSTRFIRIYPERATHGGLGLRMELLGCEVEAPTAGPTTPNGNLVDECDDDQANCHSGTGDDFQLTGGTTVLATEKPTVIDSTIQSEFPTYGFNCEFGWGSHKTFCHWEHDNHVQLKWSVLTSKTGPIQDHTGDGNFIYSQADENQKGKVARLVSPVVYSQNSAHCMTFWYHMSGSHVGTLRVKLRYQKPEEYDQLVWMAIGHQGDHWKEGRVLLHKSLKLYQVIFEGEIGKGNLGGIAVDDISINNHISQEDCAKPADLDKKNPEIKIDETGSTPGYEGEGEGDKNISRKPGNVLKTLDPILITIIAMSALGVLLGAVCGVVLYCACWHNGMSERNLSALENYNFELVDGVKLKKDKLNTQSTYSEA

With `N=C(N)NCCC[C@H](NC(=O)c1sccc1NS(=O)(=O)c1cccc(C#CCN)c1)C(=O)O`, the pIC50 (as a rule, −log10 of the IC50, conventionally taken in molar units) in assay [1] is above 4.70.
As for `Cc1nc(CNc2cccc(S(=O)(=O)Nc3ccsc3C(=O)N[C@@H](CCCNC(=N)N)C(=O)O)c2)c(C)o1`, in assay [1], the pIC50 was above 4.70.
For `Cc1ccc2nsnc2c1S(=O)(=O)Nc1ccsc1C(=O)N[C@@H](CCCNC(=N)N)C(=O)O`, in assay [1], the pIC50 was above 4.70.
`N=C(N)NCCC[C@H](NC(=O)c1sccc1NS(=O)(=O)c1ccc(N)cc1)C(=O)O`: the inhibition entry in assay [2], in assay [3] and in assay [4] was “Active” throughout. In addition, in assay [1], the pIC50 is above 4.70.
Consider `N=C(N)NCCC[C@H](NC(=O)c1sccc1NS(=O)(=O)c1cc2ccccc2o1)C(=O)O`, for which the pIC50 in assay [1] was above 4.70.
As for `Cc1cc(CNc2cccc(S(=O)(=O)Nc3ccsc3C(=O)N[C@@H](CCCNC(=N)N)C(=O)O)c2)n(C)n1`, in assay [1], the pIC50 was above 4.70.
Still for that read-out and setting: to `Cc1noc(C)c1-c1cccc(S(=O)(=O)Nc2ccsc2C(=O)N[C@@H](CCCNC(=N)N)C(=O)O)c1` belongs above 4.70; to `N=C(N)NCCC[C@H](NC(=O)c1sccc1NS(=O)(=O)c1cccc(NCc2ccccn2)c1)C(=O)O`, above 4.70.
As to `CN1CCOc2cc(-c3cc4c(c(S(=O)(=O)Nc5ccsc5C(=O)N[C@@H](CCCNC(=N)N)C(=O)O)c3)OCC4)cnc21`, in assay [1], the negative-log IC50 (pIC50) is above 4.70.
As to `N=C(N)NCCC[C@H](NC(=O)c1sccc1NS(=O)(=O)c1cccc(N)c1)C(=O)O`, the pIC50 in assay [1] was above 4.70.
For `N=C(N)NCCC[C@H](NC(=O)c1sccc1NS(=O)(=O)c1cccc(CCc2cccnc2)c1)C(=O)O`, in assay [1], the pIC50 is above 4.70.
For `Cc1nn(C)c(Cl)c1CNc1cccc(S(=O)(=O)Nc2ccsc2C(=O)N[C@@H](CCCNC(=N)N)C(=O)O)c1`, in assay [1], the pIC50 was above 4.70.
`N=C(N)NCCC[C@H](NC(=O)c1sccc1NS(=O)(=O)c1ccccc1N)C(=O)O`: the negative logarithm of the IC50 (pIC50) in assay [1] is above 4.70.
On to `N=C(N)NC(=O)CC[C@H](NC(=O)c1sccc1NS(=O)(=O)c1ccccc1[N+](=O)[O-])C(=O)O`, for which, in assay [1], the pIC50 is above 4.70.
In the case of `N=C(N)NCCC[C@H](NC(=O)c1sccc1NS(=O)(=O)c1cc2ccccc2s1)C(=O)O`, the pIC50 in assay [1] was above 4.70.
As for `N=C(N)NCCC[C@H](NC(=O)c1sccc1NS(=O)(=O)c1ccccc1[N+](=O)[O-])C(=O)O`, the pIC50 in assay [1] was above 4.70.
Take `CC(=O)Nc1ccc(S(=O)(=O)Nc2ccsc2C(=O)N[C@@H](CCCNC(=N)N)C(=O)O)cc1`: in assay [1], the negative logarithm of the IC50 (pIC50) was above 4.70.
For the molecule `N=C(N)NCCC[C@H](NC(=O)c1sccc1NS(=O)(=O)c1cccc(CCCN)c1)C(=O)O`, the negative logarithm of the IC50 (pIC50) in assay [1] was above 4.70.
On the same count and under the same terms, to `Cc1noc(C)c1-c1cc2c(c(S(=O)(=O)Nc3ccsc3C(=O)N[C@@H](CCCNC(=N)N)C(=O)O)c1)OCC2` belongs above 4.70.
